Assay results as given in publication PMC10126264, “Synergistic effect and antibiofilm activity of the antimicrobial peptide K11 with conventional antibiotics against multidrug-resistant and extensively drug-resistant Klebsiella pneumoniae” (Frontiers in Cellular and Infection Microbiology, 2023).
Converted amounts (≈) assume the structure as drawn. Read-outs that look alike come from different tables or passages of the source. Residues, ends and D or L forms follow the SMILES beside them.

How the values were obtained:
[1] = system: K. pneumoniae ATCC BAA-1706
Protocol: The effects of various cations and serum on the antimicrobial activity of K11 were investigated against K. pneumoniae ATCC 70063 and K. pneumoniae ATCC BAA-1706 by the MIC assay, as described above. For salt stability, 2 mg/mL of K11 was dissolved in solutions containing different salts at their physiological concentrations; NaCl (100, 150, and 200 mM), MgCl2 (0.5, 1 and 2 mM), and FeCl3 (1, 4, and 8 mM), then incubated for 1 h at 37°C. Subsequently, serially 2-fold diluted K11 solutions were prepared in CAMHB, and aliquots of each peptide solution were added to a 96-well plate. An equal volume of bacterial suspension was added, and the mixtures were incubated at 37°C for 20-24 h ([Ko et al., 2019]). […] The antimicrobial activity was determined by measuring the MICs.

K. pneumoniae ATCC 70063 [2] = system: K. pneumoniae ATCC 70063
[3] = system: K. pneumoniae ATCC BAA-1706; remark: listed apart in the source
Protocol: (§1) The ability of K11 to inhibit bacterial growth was determined by the broth microdilution method ([Clinical and Laboratory Standards Institute, 2018]). Briefly, a series of 2-fold dilutions of K11 were prepared from 1,024 to 2 µg/mL in cation-adjusted Mueller-Hinton broth (CAMHB), Then 50 µL of each peptide dilution was added to each well of polystyrene 96-well U-bottom microplates. The log-phase cultures were adjusted to 0.5 McFarland standard and diluted 1:100 in CAMHB to provide the density of 10^6 CFU/mL. Consequently, 50 µL of diluted bacterial suspension was added to wells containing 50 µL of peptide solution, followed by incubation for 20-24 h at 37°C. […] To evaluate MBC, a volume of 10 μL was taken from each well with no visible growth, inoculated on Mueller-Hinton agar (MHA) plates, and incubated at 37°C. The MBC was defined as the lowest concentration of antimicrobials that killed at least 99.9% of the initial inoculums ([Clinical and Laboratory Standards Institute, 1999]).

[4] = ref Jin-Jiang et al., 2012; cited from earlier work
Excerpt: K11 is a synthetic peptide derived from natural AMPs (cecropin A1, melittin, and maganin 2), composed of 20 amino acids ([…]-NH2). […] Moreover, K11 has also been successfully used in vivo as a topic hydrogel solution against Acinetobacter baumannii-infected wounds ([Rishi et al., 2018]).

[5] = system: K. pneumoniae ATCC BAA-1706; remark: listed apart in the source
Protocol: (§2) The temperature and pH stabilities of K11 were evaluated by the MIC assay, as mentioned above. To assess the thermal stability, Aliquots of 2 mg/mL of K11 in sterile deionized water were incubated for 1 h at 25°C, 37°C, 50°C, 70°C, and 90°C. Then, a series of 2-fold dilutions of K11 were prepared in CAMHB, 50 µL of each peptide solution was transferred to the well of a 96-well microplate. An equal volume of K. pneumoniae ATCC 70063 or K. pneumoniae ATCC BAA-1706 (10^6 CFU/mL) suspension was added, and the mixture was incubated at 37°C for 20-24 h ([Li et al., 2021]). To examine the pH stability, the pH was adjusted to range from 2.0 to 10.0 with the following 100 mM buffers: glycine-HCl buffer (pH 2.0), sodium acetate buffer (pH 4.0), sodium phosphate buffer (pH 6.0), Tris-HCl buffer (pH 8.0), and glycine-NaOH buffer (pH 10.0). Then, 2 mg/mL of K11 was prepared in buffers with different pH values (pH 2.0-10.0) and incubated for 1 h at 37°C. Afterward, the pH of the reaction solution was neutralized by HCl or NaOH to terminate the reaction. The serially diluted peptide solutions were conducted, then treated against the tested strains, and the mixtures were incubated at 37°C for 20-24 h ([Cao et al., 2015]; [Zong et al., 2016]). The MICs were observed.

K. pneumoniae ATCC 70063 [6] = system: K. pneumoniae ATCC 70063; remark: listed apart in the source
Protocol: as §2

[7] = system: K. pneumoniae reference strains; test: MIC determination, broth microdilution; format: cell-based, Klebsiella pneumoniae; conditions: K. pneumoniae reference strains (ATCC BAA-1706, ATCC 70063)
[8] = system: MDR/XDR K. pneumoniae clinical isolates; test: microbe, parasite or virus in culture; conditions: for MIC: broth microdilution in CAMHB, 20-24 h at 37°C; for MBC: wells with no visible growth plated on MHA, 37°C, kills at least 99.9% of inoculum
Protocol: as §1

[9] = broth microdilution in CAMHB, 20-24 h at 37°C
[10] = wells with no visible growth plated on MHA, 37°C, kills at least 99.9% of inoculum
[11] = K11 2 mg/mL in 100 mM Tris-HCl buffer pH 8.0, 1 h at 37°C, neutralized, then MIC
[12] = K11 2 mg/mL in 100 mM glycine-HCl buffer pH 2.0, 1 h at 37°C, neutralized, then MIC
[13] = K11 2 mg/mL in 100 mM glycine-NaOH buffer pH 10.0, 1 h at 37°C, neutralized, then MIC
[14] = K11 2 mg/mL in 100 mM sodium acetate buffer pH 4.0, 1 h at 37°C, neutralized, then MIC
[15] = K11 2 mg/mL in 100 mM sodium phosphate buffer pH 6.0, 1 h at 37°C, neutralized, then MIC
[16] = K11 2 mg/mL in sterile deionized water incubated 1 h at 25°C (control), then MIC in CAMHB
[17] = K11 2 mg/mL in sterile deionized water incubated 1 h at 37°C, then MIC in CAMHB
[18] = K11 2 mg/mL in sterile deionized water incubated 1 h at 50°C, then MIC in CAMHB
[19] = K11 2 mg/mL in sterile deionized water incubated 1 h at 70°C, then MIC in CAMHB
[20] = K11 2 mg/mL in sterile deionized water incubated 1 h at 90°C, then MIC in CAMHB
[21] = MDR/XDR K. pneumoniae clinical isolates

## CC[C@H](C)[C@H](NC(=O)[C@H](Cc1ccccc1)NC(=O)[C@H](CO)NC(=O)[C@H](CCCCN)NC(=O)[C@H](Cc1c[nH]c2ccccc12)NC(=O)[C@@H](N)CCCCN)C(=O)N[C@@H](CCCCN)C(=O)N[C@@H](CCCCN)C(=O)N[C@@H](CC(C)C)C(=O)N[C@H](C(=O)N[C@@H](CCCCN)C(=O)N[C@@H](CCCCN)C(=O)N[C@@H](Cc1ccccc1)C(=O)N[C@@H](CC(C)C)C(=O)N[C@@H](Cc1c[nH]cn1)C(=O)N[C@@H](CO)C(=O)N[C@@H](C)C(=O)N[C@@H](CCCCN)C(=O)N[C@@H](CCCCN)C(=O)N[C@@H](Cc1ccccc1)C(N)=O)[C@@H](C)O [K11] (H-KWKSFIKKLTKKFLHSAKKF-NH2)
[1]; Control, salt concentration 0
  Antimicrobial activity MIC: 2 µg/mL
[1]; K11 2 mg/mL in FeCl3 1 µM, 1 h at 37°C, then MIC in CAMHB
  Antimicrobial activity MIC: 2 µg/mL
[1]; K11 2 mg/mL in FeCl3 4 µM, 1 h at 37°C, then MIC in CAMHB
  Antimicrobial activity MIC: 2 µg/mL
[1]; K11 2 mg/mL in FeCl3 8 µM, 1 h at 37°C, then MIC in CAMHB
  Antimicrobial activity MIC: 2 µg/mL
[1]; K11 2 mg/mL in MgCl2 0.5 mM, 1 h at 37°C, then MIC in CAMHB
  Antimicrobial activity MIC: 2 µg/mL
[1]; K11 2 mg/mL in MgCl2 1 mM, 1 h at 37°C, then MIC in CAMHB
  Antimicrobial activity MIC: 2 µg/mL
[1]; K11 2 mg/mL in MgCl2 2 mM, 1 h at 37°C, then MIC in CAMHB
  Antimicrobial activity MIC: 2 µg/mL
[1]; K11 2 mg/mL in NaCl 100 mM, 1 h at 37°C, then MIC in CAMHB
  Antimicrobial activity MIC: 2 µg/mL
[1]; K11 2 mg/mL in NaCl 150mM, 1 h at 37°C, then MIC in CAMHB
  Antimicrobial activity MIC: 4 µg/mL
[1]; K11 2 mg/mL in NaCl 200 mM, 1 h at 37°C, then MIC in CAMHB
  Antimicrobial activity MIC: 4 µg/mL
K. pneumoniae ATCC 70063 [2]; [9]
  MIC: 4 µg/mL (≈ 1.6 µM)
K. pneumoniae ATCC 70063 [2]; [10]
  MBC: 4 µg/mL (≈ 1.6 µM)
[3]; [9]
  MIC: 2 µg/mL (≈ 0.802 µM)
[3]; [10]
  MBC: 2 µg/mL (≈ 0.802 µM)
[4]
  hemolytic activity: no hemolytic activity
[5]; [11]
  Antimicrobial activity MIC: 2 µg/mL
[5]; [12]
  Antimicrobial activity MIC: 2 µg/mL
[5]; [13]
  Antimicrobial activity MIC: 2 µg/mL
[5]; [14]
  Antimicrobial activity MIC: 2 µg/mL
[5]; [15]
  Antimicrobial activity MIC: 2 µg/mL
[5]; [16]
  Antimicrobial activity MIC: 2 µg/mL
[5]; [17]
  Antimicrobial activity MIC: 2 µg/mL
[5]; [18]
  Antimicrobial activity MIC: 2 µg/mL
[5]; [19]
  Antimicrobial activity MIC: 2 µg/mL
[5]; [20]
  Antimicrobial activity MIC: 2 µg/mL
[5]; pH 7 (control)
  Antimicrobial activity MIC: 2 µg/mL
K. pneumoniae ATCC 70063 [6]; [11]
  Antimicrobial activity MIC: 4 µg/mL
K. pneumoniae ATCC 70063 [6]; [12]
  Antimicrobial activity MIC: 4 µg/mL
K. pneumoniae ATCC 70063 [6]; [13]
  Antimicrobial activity MIC: 4 µg/mL
K. pneumoniae ATCC 70063 [6]; [14]
  Antimicrobial activity MIC: 4 µg/mL
K. pneumoniae ATCC 70063 [6]; [15]
  Antimicrobial activity MIC: 4 µg/mL
K. pneumoniae ATCC 70063 [6]; [16]
  Antimicrobial activity MIC: 4 µg/mL
K. pneumoniae ATCC 70063 [6]; [17]
  Antimicrobial activity MIC: 4 µg/mL
K. pneumoniae ATCC 70063 [6]; [18]
  Antimicrobial activity MIC: 4 µg/mL
K. pneumoniae ATCC 70063 [6]; [19]
  Antimicrobial activity MIC: 4 µg/mL
K. pneumoniae ATCC 70063 [6]; [20]
  Antimicrobial activity MIC: 4 µg/mL
K. pneumoniae ATCC 70063 [6]; pH 7 (control)
  Antimicrobial activity MIC: 4 µg/mL
[7]
  MIC, range over strains: 2 to 4 µg/mL
[8]; KP-01
  MIC: 8 µg/mL (≈ 3.21 µM)
  MBC: 8 µg/mL (≈ 3.21 µM)
[8]; KP-02
  MIC: 64 µg/mL (≈ 25.7 µM)
  MBC: 64 µg/mL (≈ 25.7 µM)
[8]; KP-03
  MIC: 16 µg/mL (≈ 6.42 µM)
  MBC: 16 µg/mL (≈ 6.42 µM)
[8]; KP-04
  MIC: 64 µg/mL (≈ 25.7 µM)
  MBC: 128 µg/mL (≈ 51.3 µM)
[8]; KP-05
  MIC: 8 µg/mL (≈ 3.21 µM)
  MBC: 8 µg/mL (≈ 3.21 µM)
[8]; KP-06
  MIC: 64 µg/mL (≈ 25.7 µM)
  MBC: 128 µg/mL (≈ 51.3 µM)
[8]; KP-07
  MIC: 16 µg/mL (≈ 6.42 µM)
  MBC: 16 µg/mL (≈ 6.42 µM)
[8]; KP-08
  MIC: 64 µg/mL (≈ 25.7 µM)
  MBC: 128 µg/mL (≈ 51.3 µM)
[8]; KP-09
  MIC: 64 µg/mL (≈ 25.7 µM)
  MBC: 128 µg/mL (≈ 51.3 µM)
[8]; KP-10
  MIC: 64 µg/mL (≈ 25.7 µM)
  MBC: 128 µg/mL (≈ 51.3 µM)
[8]; KP-11
  MIC: 64 µg/mL (≈ 25.7 µM)
  MBC: 64 µg/mL (≈ 25.7 µM)
[8]; KP-12
  MIC: 64 µg/mL (≈ 25.7 µM)
  MBC: 64 µg/mL (≈ 25.7 µM)
[8]; KP-13
  MIC: 32 µg/mL (≈ 12.8 µM)
  MBC: 32 µg/mL (≈ 12.8 µM)
[8]; KP-14
  MIC: 256 µg/mL (≈ 103 µM)
  MBC: 256 µg/mL (≈ 103 µM)
[8]; KP-15
  MIC: 512 µg/mL (≈ 205 µM)
  MBC: 512 µg/mL (≈ 205 µM)
[8]; [21]
  MIC50: 64 µg/mL (≈ 25.7 µM)
  MIC90: 256 µg/mL (≈ 103 µM)
